Consider three compounds from ChEMBL document CHEMBL1151271, “Phrygiasterol, a cytotoxic cyclopropane-containing polyhydroxysteroid, and related compounds from the pacific starfish Hippasteria phrygiana” (J Nat Prod, 2005).

In brackets after ≈: the same amount, converted by molar mass.

What all share (format): functional, cell-based
Assay [1] is described as follows: Cytotoxicity against mouse EAC. The conditions noted are these: Ehrlich.
The subject of assay [2] is Splenocyte. Kind of assay: Inhibition of calcium influx in mouse splenocytes.
The test system of assay [3] is Ehrlich. Put plainly: Induction of apoptosis in mouse EAC assessed as early apoptotic cell by Hoechst and PI staining.

Usually IC50 stands for the point on the concentration scale where inhibition reaches its midpoint. With `C[C@H](CC[C@@H]1C[C@H]1CO)[C@H]1[C@@H](O)[C@H](O)[C@@H]2[C@]1(C)CC[C@@H]1[C@@]3(C)CC[C@H](O)C[C@@H]3[C@@H](O)C[C@]12O` [PHRYGIASTEROL], the IC50 in assay [1] was 50 µg/mL (≈ 107 µM).
Usually EC50 stands for the concentration that produces a half-maximal response. As for `CO[C@@H]1[C@@H](O)[C@H](O[C@@H](CC[C@@H](C)[C@H]2C[C@H](O)[C@@H]3[C@]2(C)CC[C@@H]2[C@@]4(C)CC[C@H](O)C[C@@H]4[C@@H](O)C[C@]23O)C(C)C)OC[C@H]1O` [BOREALOSIDE C], the figures for the EC50 in assay [2] and in assay [3] were 20 µg/mL (≈ 33.4 µM) and 70 µg/mL (≈ 117 µM), respectively.
As to `CO[C@@H]1[C@@H](O)[C@H](O[C@@H](CC[C@@H](C)[C@H]2C[C@H](O)[C@@H]3[C@]2(C)CC[C@@H]2[C@@]4(C)CC[C@H](O)C[C@@H]4[C@@H](O)C[C@]23O)C(C)C)OC[C@H]1OS(=O)(=O)[O-].[Na+]` [PHRYGIOSIDE B], the EC50 was 20 µg/mL in assay [2] and 70 µg/mL in assay [3].
